From patent US20230123601A1, “PHARMACEUTICAL COMBINATION OF ANTIVIRAL AGENTS TARGETING HBV AND/OR AN IMMUNE MODULATOR FOR TREATMENT OF HBV” (priority 2019, published 2023)
Read-outs that look alike come from different tables or passages of the source. Strand notation (5' to 3'): a small letter for the sugar, then the base; units joined by * are phosphorothioate-linked, units joined directly phosphodiester-linked; [ ] holds rarer units or linkages, { } end groups; capitals alone tell only the bases. {MOP} = methoxy, phosphonate-4'-oxy on the 2'-O-methyluridine at position 1; m = 2'-O-methyl; f = 2'-fluoro

Legend:
HBV [1] = test: HBsAg levels in HDI-mice after subcutaneous oligonucleotide; type: in vivo
Description: HBsAg levels were monitored in both oligonucleotide treated and untreated control mice for a period spanning 147 days.

[2] = tested on: HBV Genotype A S ORF target sites fused to reporter gene; test: psiCHECK-2 dual-luciferase reporter mismatch assay in HeLa cells; type: cell-based
Description: A psiCHECK-2 dual-luciferase reporter system was utilized to evaluate the effects of a mismatch at a selected position in each of HBV-217, HBV-219, HBV-254, HBV-255, and HBV-258. The psiCHECK vector enables monitoring of changes in expression of a target gene fused to a reporter gene, where active RNAi degrades the fusion construct to produce a corresponding decrease in reporter signal. The diagram in FIG. 16 generically depicts the vector utilized in these assays. The parent partial reporter sequence contained 120 base-pair fragments from Genotype A (GenBank: AM282986.1) around target sites of interest in the S ORF. […]
The psiCHECK2 reporter assays with each oligonucleotide were conducted over a three-day period using a 6-point, 5-fold serial dilution starting at 1 nM transfected in HeLa cells. […] The cells were then incubated at 37° C. in a CO2 incubator until the cells were ready to harvest and assay for the target gene. On day 3, 100 μL of Dual-Glo Reagent was added to each well, mixed and incubated for 10 minutes before reading the luminescence. A further 100 μL of Dual-Glo Stop & Glo was added to each well, mixed and incubated for 10 minutes before reading the luminescence. […] The EC50s values determined for each oligonucleotide are shown in Table 15 with additional specifications.

HBV [3] = type: in vivo; details: HDI mice; for circulating HBsAg / hepatic viral RNAs: entecavir 500 ng/kg PO daily for 14 days alone
Experimental: The RNAi oligonucleotides targeting the S antigen impact both the viral polymerase and HBsAg protein. In this study, the combinational effects of HBV(s)-219P2 as a monotherapy and combinational treatment with entecavir was explored in an HBV-expressing mouse (HDI model) for antiviral activity.
Mice were administered daily oral dosing of 500 ng/kg Entecavir (ETV) for 14 days. A single subcutaneous administration of HBV(s)-219P2 took place. Circulating viral load (HBV DNA) was measured by qPCR (FIG. 25A), plasma HBsAg level was measured by ELISA (FIG. 25B), and liver HBV mRNA and pgRNA levels were measured by qPCR.

Compound | HBsAg levels (HBV [1]; HDI-mice, single subcutaneous dose evaluation) | HBsAg levels (HBV [1]; mice, QW×3, 3 mg/kg subcutaneous, monitored 147 days) | EC50 ([2]; mismatch duplex, single mismatch to reporter plasmid, read-out: MM EC50s) [nM] | EC50 ([2]; parent duplex, 100% homology to reporter plasmid, read-out: Parent EC50s) [nM] | mean decrease in HBV DNA detected in plasma relative to PBS (HBV [3]; entecavir 500 ng/kg PO daily for 14 days) [log] | circulating HBsAg (HBV [3]) | hepatic viral RNAs (HBV [3]) | circulating HBsAg (HBV [3]; listed as entecavir) | hepatic viral RNAs (HBV [3]; listed as entecavir)
HBV-254: HBsAg-targeting duplex oligonucleotide, sense SEQ ID NO: 55, antisense SEQ ID NO: 56 (sense GUGGUGGACUUCUCUCAAUAGCAGCCGAAAGGCUGC; antisense {MOP}-mU*fA*fU*mUfGmAfGfAmGfAmAfGmUfCmCfAmCmCfAmC*mG*mG; sense: chemistry not given here; tetraloop form) | systematically reduced HBsAg levels in mice with increasing dosage | Diminished HBsAg levels persisted in treated mice throughout the entirety of the study | 0.096 | 0.037 |  |  |  |  | 
C=C1[C@H](CO)[C@@H](O)C[C@@H]1n1cnc2c(=O)[nH]c(N)nc21 [Entecavir] |  |  |  |  | ~1.6 | no efficacy | no efficacy | No significant decrease | No significant decrease
